Test results as given in PubChem BioAssay (NCI).
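Where inhibition never reached the appropriate level, the endpoint shown equals the highest concentration tested. Otherwise, values were interpolated linearly from a five-concentration, 48-hour dose response in 96-well plates. Abbreviation: GI50, concentration required for 50% inhibition of growth. The concentration for full growth arrest is given as TGI.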

Legend:
Experiment in all cases: DTP human tumour cell line panel, 48 h
[1] = tested on: DU-145 prostate
[2] = tested on: HOP-62 NSCLC
[3] = tested on: M14 melanoma
[4] = tested on: OVCAR-4 ovarian
[5] = tested on: OVCAR-8 ovarian
[6] = tested on: PC-3 prostate
[7] = tested on: SK-MEL-2 melanoma
[8] = tested on: SN12C renal
[9] = tested on: SNB-75 CNS
[10] = tested on: SW-620 colon

In the case of `Cc1nn(CN2CCN(C)CC2)c(=S)n1/N=C/c1cccc2ccccc12`, the GI50 [1] is reported as 31.7 µM, the TGI [1] is reported as > 100 µM and the GI50 [2] is reported as 20 µM. It also gave a TGI [2] of 42.3 µM, a GI50 [3] of 18.6 µM and a TGI [3] of 39.3 µM. For the same compound, the GI50 [4] was 2.11 µM, the TGI [4] was 19.4 µM and the GI50 [5] was 19.1 µM. The TGI [5] was 37 µM, the GI50 [6] was 22.1 µM and the TGI [6] was 64 µM. It also gave a GI50 [7] of 20.1 µM, a TGI [7] of 39 µM and a GI50 [8] of 24.4 µM. The TGI [8] was 39.2 µM, the GI50 [9] was 11.1 µM and the TGI [9] was 38.1 µM. For the same compound, the GI50 [10] was 31.4 µM and the TGI [10] was > 100 µM.

Work on `CC[CH2][Pb]([CH2]CC)([CH2]CC)[O]C(=O)C(F)(F)F` yielded a GI50 [1] of 0.188 µM, a TGI [1] of 0.516 µM and a GI50 [2] of 0.176 µM. It also gave a TGI [2] of 0.404 µM, a GI50 [3] of 0.0911 µM and a TGI [3] of 0.33 µM. The GI50 [4] was 0.0385 µM, the TGI [4] was 0.178 µM and the GI50 [6] was 0.122 µM. For the same compound, the TGI [6] was 0.294 µM, the GI50 [7] was 0.214 µM and the TGI [7] was 0.462 µM. It also gave a GI50 [8] of 0.195 µM, a TGI [8] of 0.535 µM and a GI50 [9] of 0.0679 µM. For the same compound, the TGI [9] was 0.377 µM, the GI50 [10] was 0.0786 µM and the TGI [10] was 0.253 µM.

For `NCC(=O)NS(=O)(=O)OC[C@H]1O[C@@H](n2cnc3c(N)ncnc32)[C@H](O)[C@@H]1O`, the GI50 [1] was 0.699 µM, the TGI [1] was 5.61 µM and the GI50 [2] was 0.368 µM. It also gave a TGI [2] of 1.68 µM, a GI50 [3] of 1.81 µM and a TGI [3] of 3.61 µM. It also gave a GI50 [4] of 0.388 µM, a TGI [4] of 2.45 µM and a GI50 [5] of 2.48 µM. For the same compound, the TGI [5] was 7.59 µM, the GI50 [6] was 2.66 µM and the TGI [6] was 6.47 µM. The GI50 [7] was 2.22 µM, the TGI [7] was 4.69 µM and the GI50 [8] was 0.563 µM. For the same compound, the TGI [8] was 4.6 µM, the GI50 [9] was 1.14 µM and the TGI [9] was 3.32 µM. It also gave a GI50 [10] of 3.71 µM and a TGI [10] of 24.6 µM.

In the case of `C[C@]12CC[C@H](O)CC1=CC[C@@H]1[C@@H]2CC[C@]2(C)C(c3cccnc3)=CC[C@@H]12`, the GI50 [1] is reported as > 100 µM, the TGI [1] is reported as > 100 µM and the GI50 [2] is reported as 18.4 µM. The TGI [2] was > 100 µM, the GI50 [3] was > 100 µM and the TGI [3] was > 100 µM. For the same compound, the GI50 [4] was 95.2 µM, the TGI [4] was > 100 µM and the GI50 [5] was 29.5 µM. The TGI [5] was > 100 µM, the GI50 [6] was > 100 µM and the TGI [6] was > 100 µM. The GI50 [7] was 34.5 µM, the TGI [7] was > 100 µM and the GI50 [8] was > 100 µM. For the same compound, the TGI [8] was > 100 µM, the GI50 [9] was 7.69 µM and the TGI [9] was > 48.7 µM. The GI50 [10] was > 100 µM and the TGI [10] was > 100 µM.

`N#C/C(=C1C=C/C(=N/O)C(Br)=C/1)c1ccccc1` gave a GI50 [1] of 3.24 µM, a TGI [1] of 9.69 µM and a GI50 [2] of 2.25 µM. The TGI [2] was 13 µM, the GI50 [3] was 3.79 µM and the TGI [3] was 20 µM. For the same compound, the GI50 [4] was 5.41 µM, the TGI [4] was 37.9 µM and the GI50 [5] was 2.61 µM. It also gave a TGI [5] of 8.41 µM, a GI50 [6] of 0.568 µM and a TGI [6] of 6.33 µM. The GI50 [7] was 3.64 µM, the TGI [7] was 13.9 µM and the GI50 [8] was 3.68 µM. It also gave a TGI [8] of 16.8 µM, a GI50 [9] of 3.42 µM and a TGI [9] of 22.6 µM. It also gave a GI50 [10] of 0.637 µM and a TGI [10] of 10.8 µM.

In the case of `Cn1c(N2NC(=O)C(N=Nc3ccc(S(N)(=O)=O)cc3)C2=O)nc(-c2ccco2)c(C#N)c1=O` (stereo not drawn), the GI50 [1] is reported as 14.9 µM, the TGI [1] is reported as > 50 µM and the GI50 [2] is reported as > 50 µM. The TGI [2] was > 50 µM, the GI50 [3] was 21.9 µM and the TGI [3] was > 50 µM. For the same compound, the GI50 [4] was 8 µM, the TGI [4] was 23.9 µM and the GI50 [5] was > 50 µM. For the same compound, the TGI [5] was > 50 µM, the GI50 [6] was 23.2 µM and the TGI [6] was > 50 µM. For the same compound, the GI50 [7] was > 50 µM, the TGI [7] was > 50 µM and the GI50 [8] was > 50 µM. For the same compound, the TGI [8] was > 50 µM, the GI50 [9] was 39.2 µM and the TGI [9] was > 50 µM. It also gave a GI50 [10] of 9.23 µM and a TGI [10] of 28.6 µM.
